Measurements published in US20230085307A1, “PYRIDAZINONE COMPOUND AND HERBICIDE” (NISSAN CHEMICAL CORPORATION, priority 2019, published 2023).

How the values were obtained:
[1] = test system: lambsquarters; assay: Test Example 5: herbicidal effect by foliage application, plastic box (Table 20, symbol O); format: in vivo, lambsquarters (Chenopodium album); settings: foliage application, three weeks after application; for herbicidal effect grade, O: lambsquarters: 320 g/ha
Summary of the method: (§1)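 Plants were sown into sterilized diluvial soil under about 1.5 cm cover and kept in a greenhouse at 25° C. to 30° C. Fourteen days on, foliage received an even spray of the diluted emulsion. Herbicidal or crop effect was judged three weeks afterwards.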

[2] = test system: Japanese bulrush; assay: Test Example 2: herbicidal activity, application during weed generation under submerged conditions (Table 17, symbol B); format: in vivo, Japanese bulrush (Schoenoplectus juncoides); settings: AAH 320 g/ha; application during weed generation, submerged conditions
Summary of the method: (§2)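 Effect on each weed is rated three weeks post-treatment, using the same scoring criteria as the preceding test. Plants grow from mixed-sown seed in flooded alluvial soil (4 cm water) at 25° C. to 30° C., and are treated at one to two leaves with diluted emulsion dropped onto the water.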

[3] = test system: windgrass; assay: Test Example 5: herbicidal effect by foliage application, plastic box (Table 20, symbol L); format: in vivo, windgrass (Apera spica-venti); settings: foliage application, three weeks after application; for herbicidal effect grade, L: windgrass: 320 g/ha
Summary of the method: as §1

[4] = test system: persian speedwell; assay: Test Example 5: herbicidal effect by foliage application, plastic box (Table 20, symbol R); format: in vivo, Persian speedwell (Veronica persica); settings: foliage application, three weeks after application; for herbicidal effect grade, R: persian speedwell: 320 g/ha
Summary of the method: as §1

[5] = test system: lambsquarters; assay: Test Example 4: herbicidal effect by soil treatment (Table 19, symbol O); format: in vivo, lambsquarters (Chenopodium album); settings: for herbicidal effect rating, O: lambsquarters: amount of applied herbicide 320 g/ha
Summary of the method: (§3)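 In this soil treatment, the formulated compound reached the seeds only through the soil: seeds were buried about 1.5 cm deep in sterilized diluvial soil, then the diluted emulsion was sprayed over the surface. After three weeks at 25° C. to 30° C. in a greenhouse, effects were graded on criteria from an earlier test.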

[6] = test system: barnyard grass; assay: Test Example 3: herbicidal effect by foliage application, Wagner pot (Table 18, symbol H); format: in vivo, barnyard grass (Echinochloa crus-galli); settings: 320 g/ha
Summary of the method: (§4)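 Plants were sown in alluvial soil held under 0.1–0.5 cm standing water and grown 14 days in a greenhouse at 25–30 °C. An emulsifiable formulation, water-diluted to the set dose, was then sprayed onto the foliage, and effects were scored three weeks later using previously defined criteria.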

[7] = test system: southern crabgrass; assay: Test Example 4: herbicidal effect by soil treatment (Table 19, symbol F); format: in vivo, southern crabgrass (Digitaria ciliaris); settings: for herbicidal effect rating, F: southern crabgrass: amount of applied herbicide 320 g/ha
Summary of the method: as §3

[8] = test system: Italian ryegrass; assay: Test Example 4: herbicidal effect by soil treatment (Table 19, symbol K); format: in vivo, Italian ryegrass (Lolium multiflorum); settings: for herbicidal effect rating, K: Italian ryegrass: amount of applied herbicide 320 g/ha
Summary of the method: as §3

[9] = test system: persian speedwell; assay: Test Example 4: herbicidal effect by soil treatment (Table 19, symbol R); format: in vivo, Persian speedwell (Veronica persica); settings: for herbicidal effect rating, R: persian speedwell: amount of applied herbicide 320 g/ha
Summary of the method: as §3

[10] = test system: windgrass; assay: Test Example 4: herbicidal effect by soil treatment (Table 19, symbol L); format: in vivo, windgrass (Apera spica-venti); settings: for herbicidal effect rating, L: windgrass: amount of applied herbicide 320 g/ha
Summary of the method: as §3

[11] = test system: blackgrass; assay: Test Example 4: herbicidal effect by soil treatment (Table 19, symbol J); format: in vivo, blackgrass (Alopecurus myosuroides); settings: for herbicidal effect rating, J: blackgrass: amount of applied herbicide 320 g/ha
Summary of the method: as §3

[12] = test system: velvetleaf; assay: Test Example 4: herbicidal effect by soil treatment (Table 19, symbol M); format: in vivo, velvetleaf (Abutilon theophrasti); settings: for herbicidal effect rating, M: velvetleaf: amount of applied herbicide 320 g/ha
Summary of the method: as §3

[13] = test system: southern crabgrass; assay: Test Example 5: herbicidal effect by foliage application, plastic box (Table 20, symbol F); format: in vivo, southern crabgrass (Digitaria ciliaris); settings: foliage application, three weeks after application; for herbicidal effect grade, F: southern crabgrass: 320 g/ha
Summary of the method: as §1

[14] = test system: late watergrass; assay: Test Example 1: herbicidal activity, application before weed generation under submerged conditions (Table 16, symbol A); format: in vivo, late watergrass (Echinochloa oryzicola); settings: 320 g/ha applied herbicide
Summary of the method: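 Submerged Wagner pots (alluvial soil, 4 cm water) sown with weed seeds and planted with 2.5-leaf rice seedlings; emulsifiable concentrate diluted in water applied to water surface on sowing day. Held in greenhouse at 25-30 °C; injury scored 0-5 by herbicidal rate after three weeks.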

[15] = test system: Chinese sprangletop; assay: Test Example 3: herbicidal effect by foliage application, Wagner pot (Table 18, symbol D); format: in vivo, chinese sprangletop (Leptochloa chinensis); settings: 320 g/ha
Summary of the method: as §4

[16] = test system: late watergrass; assay: Test Example 2: herbicidal activity, application during weed generation under submerged conditions (Table 17, symbol A); format: in vivo, late watergrass (Echinochloa oryzicola); settings: AAH 320 g/ha; application during weed generation, submerged conditions
Summary of the method: as §2

[17] = test system: Italian ryegrass; assay: Test Example 5: herbicidal effect by foliage application, plastic box (Table 20, symbol K); format: in vivo, Italian ryegrass (Lolium multiflorum); settings: foliage application, three weeks after application; for herbicidal effect grade, K: Italian ryegrass: 320 g/ha
Summary of the method: as §1

SMILES | herbicidal effect grade, O: lambsquarters [1] | herbicidal effect rating, B: Japanese bulrush [2] | herbicidal effect grade, L: windgrass [3] | herbicidal effect grade, R: persian speedwell [4] | herbicidal effect rating, O: lambsquarters [5] | herbicidal effect on H (barnyard grass), rating 0-5 [6] | herbicidal effect rating, F: southern crabgrass [7] | herbicidal effect rating, K: Italian ryegrass [8] | herbicidal effect rating, R: persian speedwell [9] | herbicidal effect rating, L: windgrass [10] | herbicidal effect rating, J: blackgrass [11] | herbicidal effect rating, M: velvetleaf [12] | herbicidal effect grade, F: southern crabgrass [13] | Herbicidal effect on A: late watergrass (grade 0-5) [14] | herbicidal effect on D (Chinese sprangletop), rating 0-5 [15] | herbicidal effect rating, A: late watergrass [16] | herbicidal effect grade, K: Italian ryegrass [17] | other results
CCCC(=O)Oc1c(C)nn(C)c(=O)c1-c1c(-c2ccc(OC(C)C)cc2)sc2ccccc12 [1-021] | 1 (Herbicidal rate of 5% or more and less than 20%) | 3 (Herbicidal rate of 40% or more and less than 70%) | 0 (Herbicidal rate of 5% or less (almost no effect)) | 5 (Herbicidal rate of 90% or more (almost completely withered)) | 0 (Herbicidal rate of 5% or less (almost no effect)) | 5 (Herbicidal rate of 90% or more (almost completely withered)) | 0 (Herbicidal rate of 5% or less (almost no effect)) | 1 (Herbicidal rate of 5% or more and less than 20%) | 5 (Herbicidal rate of 90% or more (almost completely withered)) | 0 (Herbicidal rate of 5% or less (almost no effect)) | 0 (Herbicidal rate of 5% or less (almost no effect)) | 3 (Herbicidal rate of 40% or more and less than 70%) | 3 (Herbicidal rate of 40% or more and less than 70%) | 4 (Herbicidal rate of 70% or more and less than 90%) | 1 (Herbicidal rate of 5% or more and less than 20%) | 2 (Herbicidal rate of 20% or more and less than 40%) | 3 (Herbicidal rate of 40% or more and less than 70%) | –
Cc1nn(C)c(=O)c(-c2c(-c3ccc([N+](=O)[O-])cc3)sc3ccccc23)c1O [1-151] | – | 2 (Herbicidal rate of 20% or more and less than 40%) | – | – | – | 4 (Herbicidal rate of 70% or more and less than 90%) | – | – | – | – | – | – | – | 3 (Herbicidal rate of 40% or more and less than 70%) | 3 (Herbicidal rate of 40% or more and less than 70%) | 0 (Herbicidal rate of 5% or less (almost no effect)) | – | O: lambsquarters, herbicidal effect ([1]; AAH 320 g/ha): 5 (Herbicidal rate of 90% or more (almost completely withered)); L: windgrass, herbicidal effect ([3]; AAH 320 g/ha): 0 (Herbicidal rate of 5% or less (almost no effect)); R: persian speedwell, herbicidal effect ([4]; AAH 320 g/ha): 5 (Herbicidal rate of 90% or more (almost completely withered)); O: lambsquarters, herbicidal effect rating ([5]; AAH 320 g/ha): 2 (Herbicidal rate of 20% or more and less than 40%); F: southern crabgrass, herbicidal effect rating ([7]; AAH 320 g/ha): 0 (Herbicidal rate of 5% or less (almost no effect)); K: Italian ryegrass, herbicidal effect rating ([8]; AAH 320 g/ha): 3 (Herbicidal rate of 40% or more and less than 70%); R: persian speedwell, herbicidal effect rating ([9]; AAH 320 g/ha): 5 (Herbicidal rate of 90% or more (almost completely withered)); L: windgrass, herbicidal effect rating ([10]; AAH 320 g/ha): 0 (Herbicidal rate of 5% or less (almost no effect)); J: blackgrass, herbicidal effect rating ([11]; AAH 320 g/ha): 0 (Herbicidal rate of 5% or less (almost no effect)); M: velvetleaf, herbicidal effect rating ([12]; AAH 320 g/ha): 0 (Herbicidal rate of 5% or less (almost no effect)); F: southern crabgrass, herbicidal effect ([13]; AAH 320 g/ha): 4 (Herbicidal rate of 70% or more and less than 90%); K: Italian ryegrass, herbicidal effect ([17]; AAH 320 g/ha): 5 (Herbicidal rate of 90% or more (almost completely withered))
Cc1nn(C)c(=O)c(-c2c(-c3ccc(C#N)cc3)sc3ccccc23)c1O [Compound No. 1-045, 5-hydroxy-2,6-dimethyl-4-(2-(4-cyanophenyl)benzo[b]thiophen-3-yl)pyridazin-3(2H)-one] | 5 (Herbicidal rate of 90% or more (almost completely withered)) | 3 (Herbicidal rate of 40% or more and less than 70%) | 0 (Herbicidal rate of 5% or less (almost no effect)) | 5 (Herbicidal rate of 90% or more (almost completely withered)) | 5 (Herbicidal rate of 90% or more (almost completely withered)) | 5 (Herbicidal rate of 90% or more (almost completely withered)) | 4 (Herbicidal rate of 70% or more and less than 90%) | 5 (Herbicidal rate of 90% or more (almost completely withered)) | 5 (Herbicidal rate of 90% or more (almost completely withered)) | 0 (Herbicidal rate of 5% or less (almost no effect)) | 0 (Herbicidal rate of 5% or less (almost no effect)) | 5 (Herbicidal rate of 90% or more (almost completely withered)) | 3 (Herbicidal rate of 40% or more and less than 70%) | 1 (Herbicidal rate of 5% or more and less than 20%) | 4 (Herbicidal rate of 70% or more and less than 90%) | 1 (Herbicidal rate of 5% or more and less than 20%) | 5 (Herbicidal rate of 90% or more (almost completely withered)) | –
CCCOc1ccc(-c2sc3ccccc3c2-c2c(O)c(C)nn(C)c2=O)cc1 [1-019] | 5 (Herbicidal rate of 90% or more (almost completely withered)) | 4 (Herbicidal rate of 70% or more and less than 90%) | 5 (Herbicidal rate of 90% or more (almost completely withered)) | 5 (Herbicidal rate of 90% or more (almost completely withered)) | 4 (Herbicidal rate of 70% or more and less than 90%) | 5 (Herbicidal rate of 90% or more (almost completely withered)) | 0 (Herbicidal rate of 5% or less (almost no effect)) | 3 (Herbicidal rate of 40% or more and less than 70%) | 5 (Herbicidal rate of 90% or more (almost completely withered)) | 0 (Herbicidal rate of 5% or less (almost no effect)) | 0 (Herbicidal rate of 5% or less (almost no effect)) | 0 (Herbicidal rate of 5% or less (almost no effect)) | 4 (Herbicidal rate of 70% or more and less than 90%) | 5 (Herbicidal rate of 90% or more (almost completely withered)) | 4 (Herbicidal rate of 70% or more and less than 90%) | 3 (Herbicidal rate of 40% or more and less than 70%) | 4 (Herbicidal rate of 70% or more and less than 90%) | –
